Consider one substance from publication PMC9177545, “3-oxo-C12:2-HSL, quorum sensing molecule from human intestinal microbiota, inhibits pro-inflammatory pathways in immune cells via bitter taste receptors” (Scientific Reports, 2022).

The test system of one series is RAW264.7 cells. As to the kind of experiment: Intracellular calcium assay (Fluo-4) in RAW264.7 cells. It is filed as cell-based, murine. The following applies: 1000 µM. The procedure:
RAW264.7 cells were seeded in black, clear-bottom 96-well plates (Costar) at 20,000 cells per well. The next day, release of intracellular Ca^2+ was measured using Fluo-4 (Fluo-4 Direct Calcium Assay; Life Technologies) according to the manufacturer’s instructions. Medium was discarded and 100 µL of 1 X Fluo-4 dye was incubated at 37 °C for 1 h in 5% CO2, protected from light. Then, basal fluorescence was measured using a fluorospectrometer (FLUOstar Omega; BMG Labtech), excitation at 485 nm and emission at 520 nm. Molecules of interest were then added with an electronic pipette; thapsigargin (10 µM, Sigma) as a positive control, 3-oxo-C12:2-HSL (1000 µM) or DMSO 0.5%; with 8 replicates per conditions for every experiment. The fluorescence signal was immediately measured every 80 s for 2 h. Results are expressed as a ratio of the fluorescence x times over the basal fluorescence (F/F0).
Background: Calcium assays in cells follow changes in intracellular calcium, usually with a dye or a luminescent sensor.

A further series relates to Caco-2/TC7. Set-up: method as in PMID 30157234. The settings on record: Caco-2/TC7 stimulated by IL-1β ref 17; cited from earlier work.
A further series relates to JAK2. As to the kind of experiment: JAK2 phosphorylation by Wes capillary electrophoresis in activated RAW264.7 macrophages. Type of series: cell-based, murine. The following applies: 50 µM, 2 h, LPS and IFNγ stimulated. On the procedure: (§1) In RAW264.7 cells, inflammation was triggered with LPS (10 ng/mL, Sigma) and IFNγ (10 U/mL, R&Dsystems) for 2 h or 6 h, depending on the experiments. PBMC were exposed to LPS (10 ng/mL) and AHL for 24 h. For TAS2R38 inhibition experiments, cells were exposed to TAS2R38 allosteric inhibitor probenecid (1 mM, Sigma) for one hour before adding AHLs and the inflammatory cocktail, without changing the media.
RAW264.7 cells were scraped in lysis buffer (20 mM Tris- HCl, pH 7.4, 5 mM EDTA, 0.15 M NaCl, 1% Triton X-100, 0.5% sodium deoxycholate) supplemented with protease inhibitor cocktail (Complete Mini; Roche, Boulogne-Billancourt, France) and phosphatase inhibitor cocktail (PhosSTOP, Sigma-Aldrich). Protein concentrations were determined using the BC Assay (Uptima/Interchim). Wes™ analyses (capillary electrophoresis system; ProteinSimple, San Jose, CA) were performed according to the manufacturer’s recommendations, and adequate protein concentrations and antibody dilutions were determined in preliminary assays to allow optimal quantitative conditions. […] Data were analysed using Compass for SW3.1 software (ProteinSimple).

The next series concerns RAW264.7 macrophages. Put plainly: Cytokine mRNA levels by RT-qPCR in RAW264.7 macrophages stimulated with LPS and IFNγ. It is filed as cell-based, murine. The following applies: 50 µM, 2 h, vs control. The procedure:
RAW264.7 murine macrophage cells (ATCC, Manassas, Virginia, USA) were cultured between passage 12 and 25 in Dulbecco’s modified Eagle’s medium supplemented with 10% heat-inactivated fetal calf serum and 1% L-glutamine (ThermoFisher Scientific). The macrophages were seeded at 35,000 cells per well in 12-well plates (Falcon) for ELISA experiments or 110,000 cells per well in 6-well plates (Falcon) for cell lysates, upon reaching 80–90% confluence after 3-day culture. Cells were maintained at 37 °C with 5% CO2/air atmosphere and the media were changed every other day.
Cells were exposed to 3-oxo-C12:2-HSL (synthesized as previously described[17]) or DMSO 0.1% as a control for different durations depending on the experiment, in the presence of the lactonase inhibitor 2-hydroxyquinoline (100 µM, Sigma-Aldrich), in order to limit the hydrolysis of the AHL lactone ring, as described previously[17],[18].
as §1
Total RNA was extracted from RAW264.7 cells using TRIzol (Invitrogen) according to the manufacturer's instructions. Reverse Transcription (RT) was performed with 1 μg RNA using LunaScript® RT SuperMix Kit (NewEngland Biolabs). Semi-quantitative real-time PCR was performed with the Mx3000P Stratagene system using SYBR Green (Applied Biosystems) according to the manufacturer's procedures. Cyclophilin was used as the reference gene. After amplification, Ct were determined.

Another series deals with RAW264.7 cells and PBMC. As to the kind of experiment: Cytotoxicity by lactate dehydrogenase release. It is filed as cell-based. The settings on record: doses of AHL used in all experiments. On the procedure: Release of lactate dehydrogenase into the medium was measured to assess cellular toxicity. LDH concentration was measured using the Cytotoxicity Detection Kit (Roche, Boulogne-Billancourt, France) according to the manufacturer’s instructions. The media were centrifuged 5 min at 250g to remove any cells. 50 µL of reaction mixture was added to 50 µL of media supernatant in 96-well plates. After 10 min at room temperature, 25 µL of stop solution was added. Absorbance at 490 nm was determined with a microplate spectrometer (FLUOstar Omega; BMG Labtech). Results are expressed as absorbance arbitrary units.

As to 3-oxo-C12:2-HSL, in the series with RAW264.7 cells (Fluo-4 F/F0, two hours), the “slope of the calcium response curve vs control condition” value is reported as “significantly higher”. Moreover, the “intracellular calcium level compared with the control” value in the series on RAW264.7 cells (basal state, Fluo-4, two hours, control DMSO 0.5%) was “increase”. Besides, in the series on Caco-2/TC7, the IL-8 production result is recorded as “decreased”. Besides, the “phosphorylation level of JAK2 vs activated cells without AHL” value with JAK2 was “not significantly altered”. In addition, in the series on RAW264.7 macrophages, the “IL-10 expression (Il10 mRNA)” value was “strongly increased”, the “Il1b mRNA level” value is “reduced” and the “Tnf mRNA level” value is listed as “reduced”. Besides, in the series on RAW264.7 cells and PBMC, the “cytotoxicity, lactate dehydrogenase release compared to the control” value is on record as “no significant difference”.
